# Test results taken from ChEMBL document CHEMBL3885861, “Open TG-GATES”.
# Species: Rattus norvegicus
# Test: Open TG-GATES - Regimen: Daily Repeat
# Type: toxicity, organism-based, Sprague-Dawley
# Design: regimen Daily Repeat, gender Male, age 6 weeks
# Details: in vivo, po, route gavage; for APTT / Bas / Eos / Fbg / Hb / Ht / Lym / MCH / MCHC / MCV / Mono / Neu / PT / Plat / RBC / Ret / WBC: tissue Blood; for KIDNEY_L / KIDNEY_R / KIDNEY_TOTAL: tissue Kidney; for LIVER: tissue Liver; for ALP / ALT / AST / BUN / CRE / DBIL / GLC / IP / K / LDH / Na / PL / RALB / TBIL / TC / TG / TP / gamma-GTP: tissue Plasma
# [1] = 0 mg/kg, 72 h, dose level Control, time 3 day
# [2] = 0 mg/kg, […], dose level Control, time 7 day
# [3] = 0 mg/kg, […], dose level Control, time 14 day
# [4] = 0 mg/kg, […], dose level Control, time 28 day
# [5] = 45 mg/kg, 72 h, dose level Low, time 3 day
# [6] = 45 mg/kg, […], dose level Low, time 7 day
# [7] = 45 mg/kg, […], dose level Low, time 14 day
# [8] = 45 mg/kg, […], dose level Low, time 28 day
smiles,measurement,setting,value
CC(CCc1ccccc1)NCC(O)c1ccc(O)c(C(N)=O)c1 (configuration not stated) [LABETALOL],TERMINAL_BW,[1],252.2 g
same,APTT,[1],16.5 s
same,Bas,[1],0%
same,Eos,[1],1%
same,Fbg,[1],295.4 mg/dL
same,Hb,[1],13.4 g/dL
same,Ht,[1],38.9%
same,Lym,[1],75.4%
same,MCH,[1],21.3 pg
same,MCHC,[1],34.3%
same,MCV,[1],62.2 fL
same,Mono,[1],3.6%
same,Neu,[1],19.6%
same,PT,[1],12.8 s
same,Plat,[1],116.3 x10_4/uL
same,RBC,[1],627 x10_4/ul
same,Ret,[1],6.4%
same,WBC,[1],105.6 x10_2/uL
same,KIDNEY_L,[1],1.1 g
same,KIDNEY_R,[1],1.1 g
same,KIDNEY_TOTAL,[1],2.2 g
same,LIVER,[1],12.1 g
same,ALP,[1],1730.4 IU/L
same,ALT,[1],44.2 IU/L
same,AST,[1],70 IU/L
same,BUN,[1],15.4 mg/dL
same,CRE,[1],0.2 mg/dL
same,DBIL,[1],0.014 mg/dL
same,GLC,[1],190.6 mg/dL
same,IP,[1],7.8 mg/dL
same,K,[1],4 meq/L
same,LDH,[1],60.6 IU/L
same,Na,[1],143.4 meq/L
same,PL,[1],158 mg/dL
same,RALB,[1],2.7 g/dL
same,TBIL,[1],0.032 mg/dL
same,TC,[1],85.6 mg/dL
same,TG,[1],111.4 mg/dL
same,TP,[1],5.8 g/dL
same,gamma-GTP,[1],1 IU/L
same,TERMINAL_BW,[2],289.5 g
same,TERMINAL_BW,[3],341.4 g
same,TERMINAL_BW,[4],418.9 g
same,APTT,[2],17.2 s
same,Bas,[2],0%
same,Eos,[2],0.8%
same,Fbg,[2],319.2 mg/dL
same,Hb,[2],13.6 g/dL
same,Ht,[2],38.7%
same,Lym,[2],78.2%
same,MCH,[2],21.4 pg
same,MCHC,[2],35.1%
same,MCV,[2],61 fL
same,Mono,[2],3%
same,Neu,[2],16.8%
same,PT,[2],12.5 s
same,Plat,[2],117.8 x10_4/uL
same,RBC,[2],635.2 x10_4/ul
same,Ret,[2],6%
same,WBC,[2],108.5 x10_2/uL
same,APTT,[3],17.8 s
same,Bas,[3],0.2%
same,Eos,[3],1%
same,Fbg,[3],271.4 mg/dL
same,Hb,[3],14.6 g/dL
same,Ht,[3],42.4%
same,Lym,[3],71.8%
same,MCH,[3],21.1 pg
same,MCHC,[3],34.4%
same,MCV,[3],61.5 fL
same,Mono,[3],2.8%
same,Neu,[3],23.8%
same,PT,[3],12.8 s
same,Plat,[3],104.1 x10_4/uL
same,RBC,[3],689 x10_4/ul
same,Ret,[3],4.5%
same,WBC,[3],82.7 x10_2/uL
same,APTT,[4],18.5 s
same,Bas,[4],0.6%
same,Eos,[4],1.2%
same,Fbg,[4],289 mg/dL
same,Hb,[4],15.1 g/dL
same,Ht,[4],43.5%
same,Lym,[4],76.2%
same,MCH,[4],20.2 pg
same,MCHC,[4],34.8%
same,MCV,[4],58.3 fL
same,Mono,[4],3.2%
same,Neu,[4],18.4%
same,PT,[4],12.9 s
same,Plat,[4],98.3 x10_4/uL
same,RBC,[4],748.2 x10_4/ul
same,Ret,[4],2.5%
same,WBC,[4],98.7 x10_2/uL
same,KIDNEY_L,[2],1.2 g
same,KIDNEY_R,[2],1.2 g
same,KIDNEY_TOTAL,[2],2.5 g
same,KIDNEY_L,[3],1.3 g
same,KIDNEY_R,[3],1.2 g
same,KIDNEY_TOTAL,[3],2.4 g
same,KIDNEY_L,[4],1.4 g
same,KIDNEY_R,[4],1.4 g
same,KIDNEY_TOTAL,[4],2.9 g
same,LIVER,[2],13.1 g
same,LIVER,[3],13.9 g
same,LIVER,[4],16.1 g
same,ALP,[2],1548.4 IU/L
same,ALT,[2],43.4 IU/L
same,AST,[2],69.8 IU/L
same,BUN,[2],14.2 mg/dL
same,CRE,[2],0.2 mg/dL
same,DBIL,[2],0.012 mg/dL
same,GLC,[2],188.4 mg/dL
same,IP,[2],7.8 mg/dL
same,K,[2],3.8 meq/L
same,LDH,[2],64.6 IU/L
same,Na,[2],143.2 meq/L
same,PL,[2],149.2 mg/dL
same,RALB,[2],2.7 g/dL
same,TBIL,[2],0.034 mg/dL
same,TC,[2],85.4 mg/dL
same,TG,[2],86.8 mg/dL
same,TP,[2],5.8 g/dL
same,gamma-GTP,[2],1 IU/L
same,ALP,[3],1377.6 IU/L
same,ALT,[3],45.8 IU/L
same,AST,[3],72.4 IU/L
same,BUN,[3],15.2 mg/dL
same,CRE,[3],0.2 mg/dL
same,DBIL,[3],0.014 mg/dL
same,GLC,[3],197 mg/dL
same,IP,[3],6.9 mg/dL
same,K,[3],3.7 meq/L
same,LDH,[3],79.4 IU/L
same,Na,[3],144.6 meq/L
same,PL,[3],146.8 mg/dL
same,RALB,[3],2.8 g/dL
same,TBIL,[3],0.024 mg/dL
same,TC,[3],74 mg/dL
same,TG,[3],120.8 mg/dL
same,TP,[3],6.2 g/dL
same,gamma-GTP,[3],1 IU/L
same,ALP,[4],1192 IU/L
same,ALT,[4],43.2 IU/L
same,AST,[4],67 IU/L
same,BUN,[4],17 mg/dL
same,CRE,[4],0.2 mg/dL
same,DBIL,[4],0.022 mg/dL
same,GLC,[4],199 mg/dL
same,IP,[4],6.5 mg/dL
same,K,[4],3.6 meq/L
same,LDH,[4],63.8 IU/L
same,Na,[4],142.4 meq/L
same,PL,[4],151.2 mg/dL
same,RALB,[4],2.8 g/dL
same,TBIL,[4],0.036 mg/dL
same,TC,[4],77.6 mg/dL
same,TG,[4],143.2 mg/dL
same,TP,[4],6.3 g/dL
same,gamma-GTP,[4],1 IU/L
same,TERMINAL_BW,[5],254.7 g
same,APTT,[5],16 s
same,Bas,[5],0%
same,Eos,[5],0.8%
same,Fbg,[5],279.4 mg/dL
same,Hb,[5],13.6 g/dL
same,Ht,[5],40.1%
same,Lym,[5],77%
same,MCH,[5],21.7 pg
same,MCHC,[5],33.9%
same,MCV,[5],64.1 fL
same,Mono,[5],3%
same,Neu,[5],18.6%
same,PT,[5],13 s
same,Plat,[5],116.6 x10_4/uL
same,RBC,[5],626.8 x10_4/ul
same,Ret,[5],6.8%
same,WBC,[5],105.9 x10_2/uL
same,KIDNEY_L,[5],1.1 g
same,KIDNEY_R,[5],1.1 g
same,KIDNEY_TOTAL,[5],2.2 g
same,LIVER,[5],11.6 g
same,ALP,[5],1517 IU/L
same,ALT,[5],42.4 IU/L
same,AST,[5],69.8 IU/L
same,BUN,[5],15 mg/dL
same,CRE,[5],0.2 mg/dL
same,DBIL,[5],0.014 mg/dL
same,GLC,[5],186.2 mg/dL
same,IP,[5],7.4 mg/dL
same,K,[5],4 meq/L
same,LDH,[5],64.2 IU/L
same,Na,[5],143.4 meq/L
same,PL,[5],160.8 mg/dL
same,RALB,[5],2.7 g/dL
same,TBIL,[5],0.026 mg/dL
same,TC,[5],87.6 mg/dL
same,TG,[5],116.6 mg/dL
same,TP,[5],5.9 g/dL
same,gamma-GTP,[5],1.2 IU/L
same,TERMINAL_BW,[6],288.7 g
same,TERMINAL_BW,[7],350.6 g
same,TERMINAL_BW,[8],411.6 g
same,APTT,[6],17.4 s
same,Bas,[6],0%
same,Eos,[6],1%
same,Fbg,[6],315.6 mg/dL
same,Hb,[6],14.1 g/dL
same,Ht,[6],40.9%
same,Lym,[6],73%
same,MCH,[6],21.4 pg
same,MCHC,[6],34.6%
same,MCV,[6],61.9 fL
same,Mono,[6],3.4%
same,Neu,[6],22.2%
same,PT,[6],12.8 s
same,Plat,[6],114.7 x10_4/uL
same,RBC,[6],661 x10_4/ul
same,Ret,[6],5.1%
same,WBC,[6],95.2 x10_2/uL
same,APTT,[7],17.7 s
same,Bas,[7],0%
same,Eos,[7],0.8%
same,Fbg,[7],291.6 mg/dL
same,Hb,[7],14.5 g/dL
same,Ht,[7],41.8%
same,Lym,[7],76.4%
same,MCH,[7],21.4 pg
same,MCHC,[7],34.7%
same,MCV,[7],61.5 fL
same,Mono,[7],2.8%
same,Neu,[7],19.6%
same,PT,[7],12.9 s
same,Plat,[7],104.8 x10_4/uL
same,RBC,[7],679.2 x10_4/ul
same,Ret,[7],4.4%
same,WBC,[7],86.7 x10_2/uL
same,APTT,[8],17.8 s
same,Bas,[8],0.4%
same,Eos,[8],1.4%
same,Fbg,[8],276.4 mg/dL
same,Hb,[8],15.5 g/dL
same,Ht,[8],44.6%
same,Lym,[8],75.6%
same,MCH,[8],19.7 pg
same,MCHC,[8],34.6%
same,MCV,[8],56.9 fL
same,Mono,[8],2.6%
same,Neu,[8],19.4%
same,PT,[8],13.1 s
same,Plat,[8],101.1 x10_4/uL
same,RBC,[8],785.2 x10_4/ul
same,Ret,[8],2.4%
same,WBC,[8],108 x10_2/uL
same,KIDNEY_L,[6],1.1 g
same,KIDNEY_R,[6],1.1 g
same,KIDNEY_TOTAL,[6],2.2 g
same,KIDNEY_L,[7],1.3 g
same,KIDNEY_R,[7],1.3 g
same,KIDNEY_TOTAL,[7],2.6 g
same,KIDNEY_L,[8],1.4 g
same,KIDNEY_R,[8],1.4 g
same,KIDNEY_TOTAL,[8],2.8 g
same,LIVER,[6],12.4 g
same,LIVER,[7],12.9 g
same,LIVER,[8],15.8 g
same,ALP,[6],1674.4 IU/L
same,ALT,[6],45 IU/L
same,AST,[6],71.4 IU/L
same,BUN,[6],15.4 mg/dL
same,CRE,[6],0.2 mg/dL
same,DBIL,[6],0.016 mg/dL
same,GLC,[6],192.2 mg/dL
same,K,[6],3.7 meq/L
same,LDH,[6],59.2 IU/L
same,Na,[6],143.2 meq/L
same,PL,[6],163.2 mg/dL
same,RALB,[6],2.7 g/dL
same,TBIL,[6],0.024 mg/dL
same,TC,[6],89.6 mg/dL
same,TG,[6],117.2 mg/dL
same,TP,[6],5.9 g/dL
same,gamma-GTP,[6],1.2 IU/L
same,ALP,[7],1374 IU/L
same,ALT,[7],46.4 IU/L
same,AST,[7],71.8 IU/L
same,BUN,[7],17 mg/dL
same,CRE,[7],0.2 mg/dL
same,DBIL,[7],0.014 mg/dL
same,GLC,[7],191.8 mg/dL
same,IP,[7],8 mg/dL
same,K,[7],3.8 meq/L
same,LDH,[7],57.2 IU/L
same,Na,[7],144.4 meq/L
same,PL,[7],155.4 mg/dL
same,RALB,[7],2.8 g/dL
same,TBIL,[7],0.028 mg/dL
same,TC,[7],76.8 mg/dL
same,TG,[7],131.2 mg/dL
same,TP,[7],6.1 g/dL
same,gamma-GTP,[7],1.2 IU/L
same,ALP,[8],1004.4 IU/L
same,ALT,[8],48.8 IU/L
same,AST,[8],70.4 IU/L
same,BUN,[8],16.6 mg/dL
same,CRE,[8],0.2 mg/dL
same,DBIL,[8],0.018 mg/dL
same,GLC,[8],179.2 mg/dL
same,IP,[8],6.8 mg/dL
same,K,[8],3.7 meq/L
same,LDH,[8],70.6 IU/L
same,Na,[8],143.2 meq/L
same,PL,[8],151.4 mg/dL
same,RALB,[8],2.9 g/dL
same,TBIL,[8],0.038 mg/dL
same,TC,[8],79.2 mg/dL
same,TG,[8],118.2 mg/dL
